Measured values taken from patent publication US7057015B1, “Hormone receptor functional dimers and methods of their use” (The Salk Institute for Biological Studies, priority 1999, dated 2006).

What was measured:
[1] = test system: mammals and other non-insect species; settings: in vivo; cited from earlier work
[2] = molecular target: T1, Drosophila melanogaster ecdysone receptor (monomeric) (Drosophila melanogaster, UniProt P34021 1-878); assay: cell-based or functional assay
T1 sequence (looked up): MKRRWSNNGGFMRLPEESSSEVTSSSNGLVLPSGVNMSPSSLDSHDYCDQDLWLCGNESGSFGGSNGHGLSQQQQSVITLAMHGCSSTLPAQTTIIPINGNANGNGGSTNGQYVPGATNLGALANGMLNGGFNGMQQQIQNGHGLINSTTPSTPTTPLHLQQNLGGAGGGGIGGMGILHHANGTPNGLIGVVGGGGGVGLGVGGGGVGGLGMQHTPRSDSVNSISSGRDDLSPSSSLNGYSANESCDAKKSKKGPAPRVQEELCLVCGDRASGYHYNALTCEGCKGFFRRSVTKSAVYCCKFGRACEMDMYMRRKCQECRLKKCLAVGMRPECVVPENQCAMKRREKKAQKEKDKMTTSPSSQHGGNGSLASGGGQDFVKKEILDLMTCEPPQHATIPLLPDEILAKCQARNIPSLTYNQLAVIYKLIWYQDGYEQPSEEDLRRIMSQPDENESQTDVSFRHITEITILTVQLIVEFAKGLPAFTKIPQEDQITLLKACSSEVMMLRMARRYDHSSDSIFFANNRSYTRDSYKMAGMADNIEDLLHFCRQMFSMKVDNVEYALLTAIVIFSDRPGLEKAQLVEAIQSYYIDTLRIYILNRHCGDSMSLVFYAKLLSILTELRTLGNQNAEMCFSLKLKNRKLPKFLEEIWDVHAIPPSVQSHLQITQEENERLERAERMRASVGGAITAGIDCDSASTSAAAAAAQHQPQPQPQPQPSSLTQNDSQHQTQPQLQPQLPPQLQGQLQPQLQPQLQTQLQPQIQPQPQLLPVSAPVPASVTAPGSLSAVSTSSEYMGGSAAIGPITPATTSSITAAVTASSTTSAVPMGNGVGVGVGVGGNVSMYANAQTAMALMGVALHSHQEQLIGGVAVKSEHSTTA

**Q.** Which “toxicity to mammals and other non-insect species” value [1] does the source give for `CCc1ccc(C(=O)NN(C(=O)c2cc(C)cc(C)c2)C(C)(C)C)cc1` [Tebufenozide, tebufenozide] here?
**A.** very low toxicity

B1: VP16-fused monomeric RXR (other)
chain: MDTKHFLPLDFSTQVNSSLTSPTGRGSMAAPSLHPSLGPGIGSPGQLHSPISTLSSPINGMGPPFSVISSPMGPHSMSVPTTPTLGFSTGSPQLSSPMNPVSSSEDIKPPLGLNGVLKVPAHPSGNMASFTKHICAICGDRSSGKHYGVYSCEGCKGFFKRTVRKDLTYTCRDNKDCLIDKRQRNRCQYCRYQKCLAMGMKREAVQEERQRGKDRNENEVESTSSANEDMPVERILEAELAVEPKTETYVEANMGLNPSSPNDPVTNICQAADKQLFTLVEWAKRIPHFSELPLDDQVILLRAGWNELLIASFSHRSIAVKDGILLATGLHVHRNSAHSAGVGAIFDRVLTELVSKMRDMQMDKTELGCLRAIVLFNPDSKGLSNPAEVEALREKVYASLEAYCKHKYPEQPGRFAKLLLRLPALRSIGLKCLEHLFFFKLIGDTPIDTFLMEMLEAPHQMT
**Q.** For B1, which “E-mediated transactivation of the E4-luc luciferase reporter in 293 cells” value [2] is on record?
**A.** > 5 fold
